Test results as given in article PMC12858405, “Ideal efficacy photoswitching for chromocontrol of TRPC4/5 channel functions in live tissues” (Nature Chemical Biology, 2026).

Biological target: T1, TRPC4β-SYFP2 (Homo sapiens, UniProt Q9UBN4)
T1 construct: expressed in transfected cells; host or cells: HEK 293 (ATCC CRL 1573), transiently transfected (jetPRIME)
T1 sequence (Q9UBN4 1-893 isoform Q9UBN4-2): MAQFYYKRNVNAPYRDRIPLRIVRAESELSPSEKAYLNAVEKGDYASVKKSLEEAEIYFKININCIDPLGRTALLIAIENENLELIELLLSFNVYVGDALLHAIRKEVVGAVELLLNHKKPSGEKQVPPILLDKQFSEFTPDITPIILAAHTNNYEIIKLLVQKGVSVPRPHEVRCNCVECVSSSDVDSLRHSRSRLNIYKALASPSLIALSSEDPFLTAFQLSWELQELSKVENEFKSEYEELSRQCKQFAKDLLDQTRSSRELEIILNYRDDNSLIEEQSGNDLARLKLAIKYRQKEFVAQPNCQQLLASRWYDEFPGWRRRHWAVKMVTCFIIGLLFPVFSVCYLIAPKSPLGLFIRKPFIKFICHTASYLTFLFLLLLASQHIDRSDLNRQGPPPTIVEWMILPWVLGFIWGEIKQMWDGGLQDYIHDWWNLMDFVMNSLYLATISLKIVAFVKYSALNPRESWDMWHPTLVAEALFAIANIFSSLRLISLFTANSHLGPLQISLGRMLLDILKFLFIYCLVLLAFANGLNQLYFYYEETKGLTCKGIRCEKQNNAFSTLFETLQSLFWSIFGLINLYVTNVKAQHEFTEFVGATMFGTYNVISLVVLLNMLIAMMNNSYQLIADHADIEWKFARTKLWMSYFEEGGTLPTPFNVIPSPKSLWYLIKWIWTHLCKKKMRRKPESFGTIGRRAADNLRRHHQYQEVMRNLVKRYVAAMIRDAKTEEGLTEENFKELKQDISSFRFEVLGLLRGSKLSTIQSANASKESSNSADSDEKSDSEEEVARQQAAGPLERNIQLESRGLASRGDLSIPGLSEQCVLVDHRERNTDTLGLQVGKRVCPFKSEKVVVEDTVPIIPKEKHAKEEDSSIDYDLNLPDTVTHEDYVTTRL
Test: Fura-2 [Ca2+]i recordings, HEK 293 transiently expressing TRPC4β-SYFP2
Format: cell-based
Conditions: AzHC 10-1000 nM, AM237 100 nM
Text: Müller, Niemeyer, et al., Schaefer & Thorn-Seshold 2025: Ideal Efficacy Photoswitching of TRPC4/5 in Tissue […]
1.4.4 Differences and selectivity between TRPC5 and TRPC4?
AM237 activates TRPC5 but inhibits EA mediated activation of TRPC4; Pico145 inhibits both TRPC4 and TRPC5. Thus, somewhat naively, it could be argued that it is the para substituent here which affects both the efficacy mode and the selectivity for TRPC4 and/or TRPC5.
Intriguingly, Z-AzPico activates TRPC4 and TRPC5 with low nanomolar potency whereas Z-AzHC only activates TRPC5 but not TRPC4. Therefore, the meta substituent is now responsible for the selectivity in this case. The cryo-EM structures of Pico145 and HC-070 in complex with TRPC5 indicated the same binding site but the southern phenyl ring bearing the OCF3/Cl group is flipped and pointing in opposite directions.
Z isomers, i.e. Z-buried vs. E-projected. Additionally, both E-AzPico and E-AzHC inhibit EA […]
It is not surprising that both ligands bind to either protein because there is a high sequence similarity among the TRPC family in the identified binding pocket for Pico145 /HC-070, and in the binding region, human TRPC4/5 differ only by a single amino acid (TRPC5: V579, TRPC4: I579). We […]
the result of differences in this residue. […]
Intracellular calcium ([Ca2+]i) was measured using the ratiometric Ca2+ dye Fura-2. […]

Cn1c(=O)n(CCCO)c(=O)c2c1nc(Oc1ccc(Cl)c(OC(F)(F)F)c1)n2Cc1ccc(Cl)cc1 [AM237, reference compound]
Effect on [Ca2+]i, TRPC4: do not activate

Cn1c(=O)n(CCCO)c(=O)c2c1nc(Oc1ccc(/N=N\c3ccccc3)c(Cl)c1)n2Cc1ccc(Cl)cc1 [Z*-AzHC]
Effect on [Ca2+]i, TRPC4: do not activate
